The source of these data is US7989458B2, “Pyrimidine derivatives as alk-5 inhibitors” (Novartis AG, priority 2006, dated 2011).

The chains are these.
B1: Follistatin: an antagonist of activin signalling (protein, UniProt P19883 30-344, looked up)
Follistatin: GNCWLRQAKNGRCQVLYKTELSKEECCSTGRLSTSWTEEDVNDNTLFKWMIFNGGAPNCIPCKETCENVDCGPGKKCRMNKKNKPRCVCAPDCSNITWKGPVCGLDGKTYRNECALLKARCKEQPELEVQYQGRCKKTCRDVFCPGSSTCVVDQTNNAYCVTCNRICPEPASSEQYLCGNDGVTYSSACHLRKATCLLGRSIGLAYEGKCIKAKSCEDIQCTGGKKCLWDFKVGRGRCSLCDELCPDSKSDEPVCASDNATYASECAMKEAACSSGVLLEVKHSGSCNSISEDTEEEEEDEDQDYSFPISSILEW

For the first data set, the target named is T1, human ALK5 (ALK5 T204D kinase domain) (Homo sapiens, UniProt P36897, T204D).
T1 construct: The kinase domain of human ALK5 (amino acids 200-503); made in house; host or cells: insect cells (baculovirus)
T1 sequence (P36897 200-503 T204D): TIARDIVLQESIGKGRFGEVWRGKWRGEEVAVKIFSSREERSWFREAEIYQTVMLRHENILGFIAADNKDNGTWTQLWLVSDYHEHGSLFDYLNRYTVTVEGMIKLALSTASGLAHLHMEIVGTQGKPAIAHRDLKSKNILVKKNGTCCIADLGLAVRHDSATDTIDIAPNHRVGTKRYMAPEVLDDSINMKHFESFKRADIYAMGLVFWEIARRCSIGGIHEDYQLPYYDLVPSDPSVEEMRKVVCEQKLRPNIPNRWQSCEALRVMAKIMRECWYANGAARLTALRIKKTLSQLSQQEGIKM
Description: ALK5 kinase activity, [33P] phosphate incorporation into casein. Type of data set: biochemical. Conditions: casein substrate, 1 μM unlabelled ATP. How it is done: The kinase activity of ALK5 is assessed by measuring radiolabelled phosphate [33P] incorporation in to the generic substrate, casein. The kinase domain of human ALK5 (amino acids 200-503) is fused to an N-terminal histidine tag. The kinase activity of ALK5 is rendered constitutive via point mutation at amino acid 204 (threonine to aspartate modification, ALK5 T204D) and the kinase construct is engineered to be expressed from a baculovirus expression construct in insect cells. The purified, recombinantly-expressed histidine-tagged ALK5 T204D protein is dissolved at 5.4 mg/ml in 50 mM Tris-HCl pH 8.0, 150 mM NaCl, 5 mM DTT. ALK5 T204D is dissolved to 2.5 μg/ml in assay buffer (Assay buffer: 20 mM Tris-HCl pH 7.4, 10 mM MgCl2, 2 mM MnCl2) on the day of use.
Test compounds and reference compounds are dissolved in assay buffer without DTT containing 5% (v/v) DMSO. Stock solutions of test and reference compounds are diluted in assay buffer with DTT (1.25 mM) containing 4.5% (v/v) DMSO. 10 μl of test or reference compound are added to the appropriate wells of 96 well U-bottomed plate. Total enzyme activity is determined by measuring ALK5 T204D activity in the absence of ALK5 kinase inhibitor reference compounds. Non-specific binding (NSB) is determined by measuring the activity of ALK5 T204D in the presence of ALK5 kinase inhibitor reference compounds. 10 μl of dephosphorylated casein stock solution (dephosphorylated casein is dissolved in ddH2O at 20 mg/ml) is added per well (200 μg/well final assay concentration). 20 μl of ALK5 T204D (2.5 μg/ml solution) is added per well (50 ng/well final assay concentration). The plates are left to incubate at room temperature for 10 minutes.
10 μl of ATP mix is added to the well to initiate the reaction (0.66 nM [^33P]ATP/1 μM unlabelled ATP/well final assay concentration). The ATP mix is prepared as follows, unlabelled ATP (3 mM) is dissolved in ddH2O and pH adjusted to 7.4. The stock concentration of [^33P]ATP is 10 μCi/μl. The appropriate volume of [^33P]ATP is added to unlabelled ATP solution such that the final assay concentration per well is 0.1 μCi. Following addition of the ATP mix, the plates are incubated at room temperature for 50 minutes. The kinase reaction is terminated by the addition of 50 μL Stop Buffer (20 mM Tris-HCl pH 7.4, 10 mM EDTA).
75 μl/well from the reaction plate is transferred to a Multiscreen-IP plate (MultiScreen-IP plates are prepared by added 50 μL of 70% (v/v) ethanol per well and incubated for 5 minutes at room temperature. The ethanol is removed by aspiration via a MultiScreen HTS Vacuum Manifold unit (Millipore, Cat no: MSVMHT500). The plates are washed twice by adding 200 μl/well ddH2O). The MultiScreen-IP plate is incubated at room temperature for 30 minutes to allowing binding of casein to the plate. The MultiScreen-IP plates are washed three times by adding 200 μl/well 100 mM phosphoric acid solution and the gasket is carefully removed from the back of the MultiScreen-IP plate and the plate dried in the oven for 30 minutes. The MultiScreen-IP plate is backsealed, 50 μL of Microscint™20 is added, then the plates are topsealed and radiolabelled casein detected and quantified on a TopCount™ plate-reader using the ^33P scintillation protocol.
Regarding `Cc1cccc(-c2nc(NCc3cccc(O)c3)cc(-c3cncc(-c4ccc(F)cc4)c3)n2)n1` [Example 2.71, 3-{[6-[5-(4-Fluoro-phenyl)-pyridin-3-yl]-2-(6-methyl-pyridin-2-yl)-pyrimidin-4-ylamino]-methyl}-phenol], the IC50 is 40 nM.
`COc1cncc(-c2cc(NCc3cccc4[nH]ccc34)nc(-c3cccc(C)n3)n2)c1` [Example 2.2, (1H-Indol-4-ylmethyl)-[6-(5-methoxy-pyridin-3-yl)-2-(6-methyl-pyridin-2-yl)-pyrimidin-4-yl]-amine] returned an IC50 of 20 nM.
The same measure, in the same setting: the result for `c1ccc(-c2nc(NCc3c[nH]c4ccccc34)cc(-c3cccnc3)n2)nc1` [Example 1.23, (1H-Indol-3-ylmethyl)-(6-pyridin-3-yl-2-pyridin-2-yl-pyrimidin-4-yl)-amine] reads 570 nM.
`c1ccc(-c2nc(NCc3cccc4[nH]ccc34)cc(-c3cccnc3)n2)nc1` [Example 1.1, (1H-Indol-4-ylmethyl)-(6-pyridin-3-yl-2-pyridin-2-yl-pyrimidin-4-yl)-amine] registered an IC50 of 100 nM.
`Cc1cccc(-c2nc(NCCc3c[nH]c4ccccc34)cc(-c3cccnc3)n2)n1` [Example 1.3, [2-(1H-Indol-3-yl)-ethyl]-[2-(6-methyl-pyridin-2-yl)-6-pyridin-3-yl-pyrimidin-4-yl]-amine] yielded a concentration for half-maximal inhibition (IC50) of 60 nM.
Same read-out and setting: with `Oc1ccc2[nH]cc(CCNc3cc(-c4cccnc4)nc(-c4ccccn4)n3)c2c1` [Example 1.29, 3-[2-(6-Pyridin-3-yl-2-pyridin-2-yl-pyrimidin-4-ylamino)-ethyl]-1H-indol-5-ol] the figure was 370 nM.
The same measure, in the same setting: the result for `Cc1ccc2c(CCNc3cc(-c4cccnc4)nc(-c4cccc(C)n4)n3)c[nH]c2c1` [Example 1.82, [2-(6-Methyl-1H-indol-3-yl)-ethyl]-[2-(6-methyl-pyridin-2-yl)-6-pyridin-3-yl-pyrimidin-4-yl]-amine] reads 100 nM.
On to `Cc1cccc(-c2nc(NCCc3cccc4[nH]ccc34)cc(-c3cccnc3)n2)n1` [Example 1.6, [2-(1H-Indol-4-yl)-ethyl]-[2-(6-methyl-pyridin-2-yl)-6-pyridin-3-yl-pyrimidin-4-yl]-amine], for which half-maximal inhibition (IC50) required 20 nM.
As for `Fc1cccc2c(CCNc3cc(-c4cccnc4)nc(-c4ccccn4)n3)c[nH]c12` [Example 1.42, [2-(7-Fluoro-1H-indol-3-yl)-ethyl]-(6-pyridin-3-yl-2-pyridin-2-yl-pyrimidin-4-yl)-amine], the IC50 worked out at 310 nM.
Regarding `Cc1cncc(-c2cc(NCCc3c[nH]c4ccccc34)nc(-c3ccccn3)n2)c1` [Example 2.31, [2-(1H-Indol-3-yl)-ethyl]-[6-(5-methyl-pyridin-3-yl)-2-pyridin-2-yl-pyrimidin-4-yl]-amine], the IC50 worked out at 910 nM.
`CNc1cc(-c2cncc(-c3cccc(OC)c3)c2)nc(-c2cccc(C)n2)n1` [Example 2.69, [6-[5-(3-Methoxy-phenyl)-pyridin-3-yl]-2-(6-methyl-pyridin-2-yl)-pyrimidin-4-yl]-methyl-amine] came in with an IC50 of 420 nM.
Same read-out and setting: the result for `COc1cccc(-c2cncc(-c3cc(NCc4cccc(O)c4)nc(-c4ccccn4)n3)c2)c1` [Example 2.17, 3-({6-[5-(3-Methoxy-phenyl)-pyridin-3-yl]-2-pyridin-2-yl-pyrimidin-4-ylamino}-methyl)-phenol] reads 80 nM; that for `Oc1ccccc1CCNc1cc(-c2cccnc2)nc(-c2ccccn2)n1` [Example 1.62, 2-[2-(6-Pyridin-3-yl-2-pyridin-2-yl-pyrimidin-4-ylamino)-ethyl]-phenol], 150 nM; that for `c1ccc(-c2nc(NCCc3coc4ccccc34)cc(-c3cccnc3)n2)nc1` [Example 1.77, (2-Benzofuran-3-yl-ethyl)-(6-pyridin-3-yl-2-pyridin-2-yl-pyrimidin-4-yl)-amine], 180 nM.
Same read-out and setting: with `c1ccc(-c2nc(NCCc3cccc4[nH]ccc34)cc(-c3cccnc3)n2)nc1` [Example 1.2, [2-(1H-Indol-4-yl)-ethyl]-(6-pyridin-3-yl-2-pyridin-2-yl-pyrimidin-4-yl)-amine] the figure was 30 nM.
On the same count and under the same terms, with `Cc1cccc(-c2nc(NCCc3cccc(O)c3)cc(-c3cccnc3)n2)n1` [Example 1.48, 3-{2-[2-(6-Methyl-pyridin-2-yl)-6-pyridin-3-yl-pyrimidin-4-ylamino]-ethyl}-phenol] the figure was 80 nM; with `Fc1ccc2[nH]cc(CCNc3cc(-c4cccnc4)nc(-c4ccccn4)n3)c2c1` [Example 1.15, [2-(5-Fluoro-1H-indol-3-yl)-ethyl]-(6-pyridin-3-yl-2-pyridin-2-yl-pyrimidin-4-yl)-amine], 790 nM.
Molecule `COc1cccc(-c2cncc(-c3cc(NCc4cccc(O)c4)nc(-c4cccc(C)n4)n3)c2)c1` [Example 2.70, 3-([6-[5-(3-Methoxy-phenyl)-pyridin-3-yl]-2-(6-methyl-pyridin-2-yl)-pyrimidin-4-ylamino]-methyl}-phenol] registered an IC50 of 10 nM.

For the next data set, the system named is dimethylnitrosamine induced liver fibrosis.
Assay: not given
Particulars: rat, during the 3 weeks treatment; cited from earlier work.
For the molecule `c1ccc(-c2cc(-c3cn[nH]c3-c3ccccn3)ccn2)cc1` [GW6604], the side effects entry is on record as “no obvious side effects”.

The same data set, now with this note: rat, given therapeutically, 3 weeks treatment; cited from earlier work.
For `c1ccc(-c2cc(-c3cn[nH]c3-c3ccccn3)ccn2)cc1` [GW6604], the “inhibition of extracellular matrix deposition” value is given as 60% and the “prevention of death rate” value was 40%.

A further data set concerns bleomycin-treated rats.
Assay: not given
Conditions: cited from earlier work.
On to B1, for which the lung fibrosis entry was “attenuated lung fibrosis”; the “number of macrophages and neutrophils in bronchoalveolar lavage” value is recorded as “significantly reduced”.

The IC50 is the concentration that gives 50% inhibition. Lower therefore signals greater potency in that assay.
